# Measurements taken from patent US6875451B2, “Compositions and methods for the treatment of primary and metastatic neoplastic diseases using arsenic compounds” (PolaRx Biopharmaceuticals Inc., priority 1997, dated 2005).
# Tests used:
# Assay in all cases: SRB growth assay, 6 days exposure, melanoma
# Assay type in all cases: cell-based
# LOX IMVI = details: LOX 1MVI
# Method: (§1) Arsenic trioxide (1 mg/ml, 10 mg/ampoule, manufactured by Taylor Pharmaceuticals, Decatur, Ill.) was tested at five concentrations each at 10-fold dilutions, i.e., 10^−5, 10^−6, 10^−7, 10^−8 and 10^−9 μg/ml.
# (§2) The in vitro tests were performed by incubating the test cells in the presence of the indicated concentration of arsenic trioxide under standard culture conditions for a designated period of time, which is followed by a sulforhodamine B (SRB) protein assay to estimate cell viability or growth. The cell lines are organized into subpanels according to the origin of the cell lines, e.g., leukemia, breast cancer, etc. A description of the cell lines and method of testing is described in Monk et al. (1997, Anticancer Drug Des. 12:533-41) and Weinstein et al., (1997, Science 275:343-9), which are incorporated herein in their entirety.
# (§3) The measurement of an effect is expressed in Percentage Growth (PG). The measured effect of the compound on a cell line is calculated according to one or the other of the following two expressions: If (Mean ODtest−Mean ODzero)≧0. then PG=100×(Mean ODtest−Mean ODzero)/(Mean ODctrl−Mean ODzero) If (Mean ODtest−Mean ODzero)<0. then PG=100×(Mean ODtest−Mean ODzero)/(Mean ODzero where: • Mean ODzero=the average of optical density measurements of SRB-derived color just before exposure of cells to the test compounds; • Mean ODtest=the average of optical density measurements of SRB-derived color after exposure of cells to the test compound for a designated period of time; and • Mean ODctrl=the average of optical density measurements of SRB-derived color after with no exposure of cells to the test compound for a designated period of time
# (§4) The first two columns describe the subpanel (e.g., leukemia) and cell line (e.g., CCRF-CEM) involved. The next two columns list the Mean ODzero and Mean ODctrl; the next five columns list the Mean ODtest for each of five different concentrations. Each concentration is expressed as the log10 (molar or μg/ml). The next five columns list the calculated PGs for each concentration. The response parameters GI50, TGI and LC50 are interpolated values representing the concentrations at which the PG is +50, 0, and −50, respectively. Sometimes these response parameters cannot be obtained by interpolation. If, for instance, all of the PGs in a given row exceed +50, then none of the three parameters can be obtained by interpolation. In such a case, the value given for each response parameter is the highest concentration tested and is preceded by a “>” sign. This practice is extended similarly to the other possible situations where a response parameter cannot be obtained by interpolation.
# (§5) In the first set, the cells from 56 different cancer cell lines were exposed to five concentrations of arsenic trioxide continuously for two days prior to performing the SRB assay. In the second set, the cells from 50 different cell lines (a subset of the first 56 cell lines, plus the renal cancer cell line 786-0) were exposed continuously for six days prior to the SRB assay.
# SK-MEL-5 = details: SK-MEL-5, 6 days
# Method: as §1, §2, §3, §4, §5
# MALMI-3M = system: MALMI-3M
# Method: as §1, §2, §3, §4, §5
# UACC-62 = details: UACC-62, 6 days
# Method: as §1, §2, §3, §4, §5
# SK-MEL-2 = details: SK-MEL-2, 6 days
# Method: as §1, §2, §3, §4, §5
substance,measurement,setting,value
arsenic trioxide,TGI,LOX IMVI,1.32E−07
same,Mean Optical Densities,LOX IMVI; Log 10 Concentration −4.9,−0.001
same,Percent Growth,LOX IMVI; Log 10 Concentration −4.9,−100%
same,Mean Optical Densities,LOX IMVI; Log 10 Concentration −5.9,0.002
same,Percent Growth,LOX IMVI; Log 10 Concentration −5.9,−88%
same,Mean Optical Densities,LOX IMVI; Log 10 Concentration −6.9,0.053
same,Percent Growth,LOX IMVI; Log 10 Concentration −6.9,2%
same,Mean Optical Densities,LOX IMVI; Log 10 Concentration −7.9,1.666
same,Percent Growth,LOX IMVI; Log 10 Concentration −7.9,77%
same,Mean Optical Densities,LOX IMVI; Log 10 Concentration −8.9,2.000
same,Percent Growth,LOX IMVI; Log 10 Concentration −8.9,93%
same,TGI,SK-MEL-5,4.07E−06
same,Mean Optical Densities,SK-MEL-5; Log 10 Concentration −4.9,0.013
same,Percent Growth,SK-MEL-5; Log 10 Concentration −4.9,−93%
same,Mean Optical Densities,SK-MEL-5; Log 10 Concentration −5.9,1.846
same,Percent Growth,SK-MEL-5; Log 10 Concentration −5.9,96%
same,Mean Optical Densities,SK-MEL-5; Log 10 Concentration −6.9,1.929
same,Percent Growth,SK-MEL-5; Log 10 Concentration −6.9,101%
same,Mean Optical Densities,SK-MEL-5; Log 10 Concentration −7.9,1.864
same,Percent Growth,SK-MEL-5; Log 10 Concentration −7.9,97%
same,Mean Optical Densities,SK-MEL-5; Log 10 Concentration −8.9,1.935
same,Percent Growth,SK-MEL-5; Log 10 Concentration −8.9,102%
same,TGI,MALMI-3M,2.78E−06
same,Mean Optical Densities,MALMI-3M; Log 10 Concentration −4.9,0.005
same,Percent Growth,MALMI-3M; Log 10 Concentration −4.9,−96%
same,Mean Optical Densities,MALMI-3M; Log 10 Concentration −5.9,0.383
same,Percent Growth,MALMI-3M; Log 10 Concentration −5.9,50%
same,Mean Optical Densities,MALMI-3M; Log 10 Concentration −6.9,0.823
same,Percent Growth,MALMI-3M; Log 10 Concentration −6.9,132%
same,Mean Optical Densities,MALMI-3M; Log 10 Concentration −7.9,0.595
same,Percent Growth,MALMI-3M; Log 10 Concentration −7.9,90%
same,Mean Optical Densities,MALMI-3M; Log 10 Concentration −8.9,0.702
same,Percent Growth,MALMI-3M; Log 10 Concentration −8.9,110%
same,TGI,UACC-62,2.27E−06
same,Mean Optical Densities,UACC-62; Log 10 Concentration −4.9,0.001
same,Percent Growth,UACC-62; Log 10 Concentration −4.9,−98%
same,Mean Optical Densities,UACC-62; Log 10 Concentration −5.9,0.539
same,Percent Growth,UACC-62; Log 10 Concentration −5.9,34%
same,Mean Optical Densities,UACC-62; Log 10 Concentration −6.9,1.409
same,Percent Growth,UACC-62; Log 10 Concentration −6.9,92%
same,Mean Optical Densities,UACC-62; Log 10 Concentration −7.9,1.460
same,Percent Growth,UACC-62; Log 10 Concentration −7.9,95%
same,Mean Optical Densities,UACC-62; Log 10 Concentration −8.9,1.546
same,Percent Growth,UACC-62; Log 10 Concentration −8.9,101%
same,TGI,SK-MEL-2,5.63E−07
same,Percent Growth,SK-MEL-2; Log 10 Concentration −4.9,−100%
same,Mean Optical Densities,SK-MEL-2; Log 10 Concentration −5.9,0.128
same,Percent Growth,SK-MEL-2; Log 10 Concentration −5.9,−40%
same,Mean Optical Densities,SK-MEL-2; Log 10 Concentration −6.9,0.426
same,Percent Growth,SK-MEL-2; Log 10 Concentration −6.9,74%
same,Mean Optical Densities,SK-MEL-2; Log 10 Concentration −7.9,0.462
same,Percent Growth,SK-MEL-2; Log 10 Concentration −7.9,87%
same,Mean Optical Densities,SK-MEL-2; Log 10 Concentration −8.9,0.491
same,Percent Growth,SK-MEL-2; Log 10 Concentration −8.9,97%
